Laboratory results published in ChEMBL document CHEMBL1201862, “PubChem BioAssay data set” (2004).
Activity calls are given as the source filed them. Cut-off read from the data, not from the text of the source, for most assays here: actives have a measured EC50 and inactives only a lower limit.

How the values were obtained:
[1] = biological target: T1, Heat shock factor protein 1 (Mus musculus, UniProt P38532); test: decrease of HSF1-responsive luciferase luminescence – cell-based, NIH3T3, dose retest, confirmation (AID 2382); type: functional;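 note: NIH3T3 fibroblasts with HSF1-driven luciferase reporter stressed by proteasome inhibitor MG132; luminescence from HSF1-driven luciferase expression after 8 hours of MG132 stress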
T1 sequence (P38532 whole entry): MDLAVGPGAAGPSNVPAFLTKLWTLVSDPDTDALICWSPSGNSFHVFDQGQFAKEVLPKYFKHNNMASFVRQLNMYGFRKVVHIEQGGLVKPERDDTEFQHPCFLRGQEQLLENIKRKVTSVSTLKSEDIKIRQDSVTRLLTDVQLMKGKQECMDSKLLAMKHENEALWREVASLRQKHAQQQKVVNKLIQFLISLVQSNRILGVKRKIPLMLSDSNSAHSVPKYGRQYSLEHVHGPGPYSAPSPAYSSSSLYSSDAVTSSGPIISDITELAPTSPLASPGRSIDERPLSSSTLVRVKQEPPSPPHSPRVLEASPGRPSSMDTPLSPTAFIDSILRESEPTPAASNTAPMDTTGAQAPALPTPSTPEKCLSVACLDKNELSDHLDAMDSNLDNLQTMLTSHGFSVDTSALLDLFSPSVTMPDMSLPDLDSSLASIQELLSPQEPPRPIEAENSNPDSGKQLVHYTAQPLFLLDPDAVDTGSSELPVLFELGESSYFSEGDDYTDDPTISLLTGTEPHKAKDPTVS

[2] = biological target: T1, Heat shock factor protein 1; test: enhancement of HSF1-driven luciferase signal – cell-based, NIH3T3, luminescence, dose retest, confirmation (AID 435004); type: functional;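 note: stress induced by proteasome inhibitor MG132 added 30 min after compound; luciferase reporter driven by HSF1 response element in NIH3T3 cells; actives raise luminescence as potentiators of the MG132 stress response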
[3] = test system: INS1; test: INS-1E survival protection against cytokine death – cell-based, luminescence, retest, dose response (AID 449756); type: functional; details: Rattus norvegicus;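 note: cell death triggered by IL-1 beta plus TNF-alpha plus IFN-gamma mixture; protective hits raise ATP signal compared with cytokine alone wells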
[4] = loss of viability in HepG2 cells – cell-based, CellTiter-Glo, cherry-picked, cytotoxicity control for Shn3 inhibitor project, dose response (AID 624134); type: functional
[5] = non-specific 3'UTR reporter inhibition in Clone20-Shn3RL – cell-based, Renilla luciferase, cherry-picked, counter-screen for Shn3 inhibitor project, dose response (AID 624133); type: functional
[6] = reduction of Shn3 3'UTR-driven luciferase in osteoblasts – cell-based, Clone20 osteoblasts, firefly luciferase, cherry-picked, dose response (AID 624132); type: functional;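 note: firefly luciferase luminescence from reporter carrying the Shn3 3'UTR in osteoblasts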
[7] = biological target: Cytochrome P450 2C9 (Homo sapiens, UniProt P11712)
Chain of Cytochrome P450 2C9 (P11712 whole entry): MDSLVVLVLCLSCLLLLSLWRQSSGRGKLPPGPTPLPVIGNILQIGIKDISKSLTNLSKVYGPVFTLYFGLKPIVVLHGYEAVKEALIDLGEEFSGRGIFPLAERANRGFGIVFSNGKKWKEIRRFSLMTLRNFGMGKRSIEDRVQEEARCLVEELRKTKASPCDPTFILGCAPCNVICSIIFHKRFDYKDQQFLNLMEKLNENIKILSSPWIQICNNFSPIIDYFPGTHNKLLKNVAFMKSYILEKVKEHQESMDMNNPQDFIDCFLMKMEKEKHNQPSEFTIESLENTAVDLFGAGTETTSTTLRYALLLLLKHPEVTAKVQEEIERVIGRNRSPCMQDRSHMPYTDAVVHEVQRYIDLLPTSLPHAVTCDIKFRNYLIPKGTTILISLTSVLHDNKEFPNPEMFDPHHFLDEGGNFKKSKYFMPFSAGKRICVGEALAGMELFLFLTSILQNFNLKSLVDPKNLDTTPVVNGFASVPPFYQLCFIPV

[8] = biological target: T2, Protein RecA (Mycobacterium tuberculosis, UniProt P9WHJ3); test: Fluorescence Cell-Free Homogeneous Dose Retest to Identify Inhibitors of RecA-Intein Splicing Activity. [Related pubchem assays (depositor defined):AID2097, AID2223, AID489010, AID492950]; type: functional
T2 sequence (P9WHJ3 whole entry): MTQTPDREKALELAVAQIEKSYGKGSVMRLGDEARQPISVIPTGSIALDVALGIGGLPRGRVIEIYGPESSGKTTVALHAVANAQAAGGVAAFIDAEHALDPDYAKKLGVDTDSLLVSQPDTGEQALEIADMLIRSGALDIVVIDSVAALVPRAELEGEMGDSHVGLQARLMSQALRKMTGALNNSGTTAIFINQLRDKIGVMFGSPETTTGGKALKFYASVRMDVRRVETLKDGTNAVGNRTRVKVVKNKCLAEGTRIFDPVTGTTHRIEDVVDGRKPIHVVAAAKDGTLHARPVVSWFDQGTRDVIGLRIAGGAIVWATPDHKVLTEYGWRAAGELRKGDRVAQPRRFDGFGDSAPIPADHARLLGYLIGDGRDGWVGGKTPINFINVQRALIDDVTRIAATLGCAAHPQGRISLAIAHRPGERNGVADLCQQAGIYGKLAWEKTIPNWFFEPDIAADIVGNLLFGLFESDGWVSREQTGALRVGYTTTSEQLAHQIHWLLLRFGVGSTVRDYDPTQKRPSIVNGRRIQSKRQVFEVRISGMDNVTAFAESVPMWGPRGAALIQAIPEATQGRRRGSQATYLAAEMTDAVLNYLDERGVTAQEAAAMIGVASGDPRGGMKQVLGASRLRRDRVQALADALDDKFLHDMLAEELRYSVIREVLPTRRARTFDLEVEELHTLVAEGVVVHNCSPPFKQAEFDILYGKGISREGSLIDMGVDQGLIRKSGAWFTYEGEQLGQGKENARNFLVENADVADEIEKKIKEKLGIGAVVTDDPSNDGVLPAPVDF

[9] = biological target: T3, Streptokinase A (Streptococcus pyogenes serotype M1, UniProt P10520); test: viability-normalized secreted streptokinase activity reduction – plasminogen activation absorbance, OD405, dose response (AID 1914); type: functional, Streptococcus pyogenes M1 GAS;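 note: secreted streptokinase activity via plasminogen activation per viability signal from cell pellet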
T3 sequence (P10520 whole entry): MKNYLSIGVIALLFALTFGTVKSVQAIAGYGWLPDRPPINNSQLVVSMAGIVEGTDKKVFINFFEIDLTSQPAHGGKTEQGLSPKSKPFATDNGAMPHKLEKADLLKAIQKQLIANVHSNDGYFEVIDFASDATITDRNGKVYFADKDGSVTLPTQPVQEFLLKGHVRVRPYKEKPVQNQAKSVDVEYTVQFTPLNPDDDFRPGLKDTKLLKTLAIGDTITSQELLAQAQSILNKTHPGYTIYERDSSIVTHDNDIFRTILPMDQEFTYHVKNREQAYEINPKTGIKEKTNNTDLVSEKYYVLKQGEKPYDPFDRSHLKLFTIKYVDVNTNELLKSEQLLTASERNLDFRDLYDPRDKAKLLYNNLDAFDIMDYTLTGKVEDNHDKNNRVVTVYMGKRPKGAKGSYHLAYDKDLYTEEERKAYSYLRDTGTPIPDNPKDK

[10] = test system: Streptococcus sp. 'group A'; test: Streptococcus pyogenes SK(-)GAS viability under kanamycin – luminescence, BacTiterGlo, confirmation, counter-screen for streptokinase expression inhibitor project, dose response (AID 1900); type: functional, organism-based
[11] = test system: Streptococcus; test: GAS UMAA2166 growth inhibition – luminescence, BacTiterGlo, counter-screen for streptokinase expression inhibitor project, dose response (AID 1915); type: functional, organism-based;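 note: potency for reduction of bacterial viability or growth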

Cc1ccc(S(=O)(=O)N2CCC(C(=O)NNC(=O)c3ccncc3)CC2)cc1
EC50 [1]: > 195 µM (not active)

Cn1c(=O)c2c(nc(NCCO)n2C)n(C)c1=O
EC50 [2]: > 260 µM (inactive)

COC(=O)c1ccc(CN2CCN(CCc3ccccc3)C(CCO)C2)cc1 (stereo not given)
EC50 [1]: > 195 µM (not active)

CCOc1ccc(N(C)S(=O)(=O)c2ccc(C)c(C(=O)OCC(=O)c3c[nH]c4ccccc34)c2)cc1
AC50 [3]: 11.3 µM (active)

CCSC1=NCCN1C(=O)C(C)(C)Oc1ccc(Cl)cc1
AC50 [3]: > 260 µM (inactive)

CC(=O)c1cccc(NS(=O)(=O)c2ccc(N/C=C\C(=O)c3ccc(C)cc3)cc2)c1
AC50 [4]: > 70 µM (inactive) | AC50 [5]: 19.6 µM (active) | AC50 [6]: 1.51 µM (active)

Cc1ccc(-c2csc3ncnc(O)c23)c(C)c1
EC50 [2]: > 260 µM (inactive)

N#Cc1ccccc1COC(=O)c1cc(=O)c2ccccc2o1
EC50 [2]: > 260 µM (inactive)

COCCN1C(=O)c2ccccc2C(C(=O)Nc2ccc3c(c2)OCCO3)C1c1ccc(F)cc1 (stereo not given)
AC50 [7]: 35.5 µM (inconclusive)

Cc1ccccc1OCC(=O)Nc1ccccc1N1CCCCC1
EC50 [8]: 242 µM (active) | EC50 [9]: 14.2 µM (active) | EC50 [10]: 9.64 µM (active) | EC50 [11]: 17.9 µM (active)

Cc1nc2ccccc2c2oc(C(=O)Nc3ccc(C(C)C)cc3)cc12
AC50 [3]: 18.8 µM (active)

CCOC(=O)c1cc(-c2ccc3c(c2)OCCO3)nc2c1c(C)nn2CCC#N
EC50 [9]: > 150 µM (not active) | EC50 [10]: 4.49 µM (active) | EC50 [11]: 17.6 µM (active)

CCCCNc1c(-c2ccc(OC)c(SC3CCCCC3)c2)nc2cnccn12
EC50 [9]: 6.56 µM (active) | EC50 [10]: 4.63 µM (active) | EC50 [11]: 8.16 µM (active)

CCOC(=O)C1CCN(C(=O)CC(C)c2ccccc2)CC1 (stereo not given)
EC50 [1]: 13.5 µM (active)

Fc1ccc(NC(S)=NCc2ccccc2)cc1
EC50 [1]: > 195 µM (not active)

O=C(COC(=O)C1CSC2(c3ccc(F)cc3)CCC(=O)N12)NC(=O)NC1CCCC1 (stereo not given)
EC50 [2]: > 260 µM (inactive)

OC1(c2ccc(Br)cc2)CCN(Cc2cccc(Br)c2)CC1
EC50 [1]: > 195 µM (not active)

CCOc1ccc(NC(=O)CCCNC(=O)Cn2cnc3sc(C)c(C)c3c2=O)cc1
EC50 [1]: > 195 µM (not active)

CCN(CC)S(=O)(=O)c1ccc2c(c1)nc(SCC(=O)NC1CC1)n2-c1ccccc1OC
EC50 [2]: > 260 µM (inactive)

COCCn1c(SCC(=O)c2cc(C)n(C)c2C)nc2ccccc2c1=O
EC50 [1]: > 195 µM (not active)

CCCCCCCCCCCCN1C(=O)CSC1c1cccnc1 (stereo not given)
EC50 [9]: 20.4 µM (active) | EC50 [10]: 6.74 µM (active) | EC50 [11]: > 150 µM (not active)

CC(C)c1ccc(/C(C(=O)O)=C(\O)C(=O)O)cc1
AC50 [7]: 3.16 µM (inconclusive)

Cc1cccc(N2C(=N)SCC2=O)c1C
EC50 [2]: > 260 µM (inactive)

O=S(=O)(c1ccc(F)c(F)c1F)N1CCN(c2ncnc3sccc23)CC1
AC50 [3]: 4.95 µM (active)

Cc1cc(C)n(-c2cc(=O)n(C)c(=O)n2C)n1
EC50 [2]: > 260 µM (inactive)

CCc1nnc(N/N=C/c2ccccc2Cl)n1N
EC50 [2]: > 260 µM (inactive)

CCN1CCN(Cc2ccc(NC(=O)c3ccc(C)c(NC(=O)c4cncc(-c5cccs5)c4)c3)cc2C(F)(F)F)CC1
AC50 [4]: 7.28 µM (active) | AC50 [5]: 0.898 µM (active) | AC50 [6]: 0.808 µM (active)
